According to PubChem BioAssay (NCI):
Where “and” joins values, the source holds several entries; their conditions need not be identical. Equal entries are not always repeated.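 Exposure lasted 48 hours, with cells grown in 96-well plates and compounds tested at five concentrations. GI50: concentration for 50% inhibition of growth. TGI denotes the concentration required for complete inhibition of growth.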

How the values were obtained:
Test in all cases: growth of human tumour cells (NCI), 48 h
[1] = test system: SW-620 colon
[2] = test system: MALME-3M melanoma
[3] = test system: KM12 colon
[4] = test system: T-47D breast
[5] = test system: NCI/ADR-RES ovarian
[6] = test system: SF-268 CNS
[7] = test system: MOLT-4 leukemia
[8] = test system: K-562 leukemia
[9] = test system: SNB-19 CNS
[10] = test system: HL-60(TB) leukemia

SMILES | GI50 [1] | TGI [1] [µM] | GI50 [2] | TGI [2] | GI50 [3] | TGI [3] [µM] | GI50 [4] | TGI [4] | GI50 [5] | TGI [5] [µM] | GI50 [6] | TGI [6] [µM] | GI50 [7] | TGI [7] [µM] | GI50 [8] | TGI [8] [µM] | GI50 [9] | TGI [9] [µM] | GI50 [10] [µM] | TGI [10] [µM]
CC(=O)C(C=O)C(C)=O.CC(=O)CC(C)=O.CC(=O)CC(C)=O.[Ru] | 15.6 µM | 69 | 24.6 µM | 96.9 µM | 27.2 µM | > 100 | 32.7 µM | > 100 µM | 21.8 µM | 95 | 34.8 µM | > 100 | 28.6 µM | > 100 | 20.7 µM | > 100 | 52.1 µM | > 100 | 30.4 | > 100
CCCc1n(Cc2ccc3ccccc3n2)cc[n+]1Cc1ccc2ccccc2n1 | 3.63 µM | 25 | 1.17 µM | 7.51 µM | 0.991 µM | 11.9 | 0.416 µM | 5.03 µM | > 100 µM | > 100 | 2.3 µM | 14.2 | 2.89 µM | 16.5 | 0.72 µM | 15.9 | 1.13 µM | 13.2 | 0.34 | 1.69
O=C1NC(=N[C@H](CO)c2ccccc2)S/C1=C\c1ccc2ncccc2c1 | 4.02 µM | > 20.5 | 6.21 µM | 22.4 µM | 5.77 µM | > 21.4 | 4.18 µM | > 24.1 µM | > 19.3 µM | > 25 | 3.82 µM | > 25 | 4.47 µM | 14.8 | 4 µM | > 25 | 3.73 µM | > 25 | 4.19 | 16.7
CS(=O)(=O)N1CCc2c(-c3cnc(N)nc3)nc(N3CCOCC3)nc21 | 1.54 µM and 1.29 µM | > 100 | 0.619 µM and 0.488 µM | > 6.87 µM and 4.87 µM | 2.1 µM and 2.25 µM | > 100 | 0.041 µM and 0.0468 µM | 0.399 µM and 0.463 µM | 2.16 µM and 1.63 µM | > 100 | 0.821 µM and 1.05 µM | > 51.6 | 0.92 µM and 0.807 µM | > 100 | > 6.98 µM and 5.3 µM | > 100 | 2.21 µM and 1.64 µM | > 59.5 | 0.415 | > 100
COc1ccc2nc3cc(Cl)ccc3c(Nc3cc(C(C)C)c(O)cc3C)c2c1 | 1.77 µM | 3.37 | 1.79 µM | 4.4 µM | 2.2 µM | 4.67 | 1.92 µM | 4.68 µM | 2.76 µM | 8.01 | 2.35 µM | 6.86 | 1.38 µM | 4.36 | 2.02 µM | > 100 | 2.97 µM | 12.7 | 1.31 | 
CC1COCCN1CC#CCOC(=O)c1cc2ccccc2oc1=O (centres undefined) | > 100 µM | > 100 | > 100 µM | > 100 µM | > 100 µM | > 100 | > 100 µM | > 100 µM | > 100 µM | > 100 | > 100 µM | > 100 | > 100 µM | > 100 | > 100 µM | > 100 | > 100 µM | > 100 | > 100 | > 100
